Reference: PubChem BioAssay (NCI)
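96-well plates; 48 h exposure; 5 concentrations. Endpoints by linear interpolation between flanking doses. Not reached: highest tested concentration assigned. GI50: concentration for 50% inhibition of growth. At the TGI there is no net growth.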

Assays:
Experiment in all cases: growth of human tumour cells (NCI), 48 h
[1] = tested on: HT29 colon
[2] = tested on: IGROV1 ovarian
[3] = tested on: MDA-MB-435
[4] = tested on: OVCAR-3 ovarian
[5] = tested on: OVCAR-8 ovarian
[6] = tested on: RXF 393 renal
[7] = tested on: SK-MEL-5 melanoma
[8] = tested on: SN12C renal
[9] = tested on: SW-620 colon
[10] = tested on: UACC-62 melanoma

Structure (SMILES) | GI50 [1] | TGI [1] | GI50 [2] | TGI [2] | GI50 [3] | TGI [3] | GI50 [4] | TGI [4] | GI50 [5] | TGI [5] | GI50 [6] | TGI [6] | GI50 [7] | TGI [7] | GI50 [8] | TGI [8] | GI50 [9] | TGI [9] | GI50 [10] | TGI [10]
COc1ncnc(NS(=O)(=O)c2ccc(N=C3C(=O)N(CN4CCN(c5c(F)cc6c(=O)c(C(=O)O)cn(C7CC7)c6c5OC)CC4C)c4ccc(Cl)cc43)cc2)c1OC (stereo unspecified) | 18.4 µM | > 50 µM | 20 µM | > 50 µM | 9.34 µM | 19 µM | 13.1 µM | > 50 µM | 14 µM | > 50 µM | 10.8 µM | 39.6 µM | 8.63 µM | 16.5 µM | 16.9 µM | > 50 µM | 10.7 µM | > 50 µM | 16.1 µM | > 50 µM
Nc1ncnc2c1nnn2C1OC(CO)C(O)C1O (stereo unspecified) |  | 21.9 µM |  | 3.95 µM | 0.273 µM | 2.44 µM |  | 9.26 µM |  | 8.97 µM | 0.271 µM | 1.51 µM |  | 5.63 µM |  | 6.77 µM |  | 8.35 µM |  | 4.72 µM
Cc1cc2c(cc1Cl)SC(N(N(C)C)S(=O)(=O)c1ccc(Cl)cc1)=NS2(=O)=O | 27.1 µM | 99.2 µM | 31.8 µM | > 100 µM | 33.2 µM | > 100 µM | 24 µM | 61.6 µM | 36.6 µM | > 100 µM | 31.3 µM | > 100 µM | 15.4 µM | 28.7 µM | 24.3 µM | 72 µM | 32.5 µM | > 100 µM | 22 µM | 56.1 µM
CCOC(=O)c1cc2nc3ccccc3c(=O)n2c2ccccc12 |  | > 10 µM |  | > 10 µM |  | > 10 µM |  | > 10 µM |  | > 10 µM |  | > 10 µM |  | > 10 µM |  | > 10 µM |  | > 10 µM |  | > 10 µM
O=C(/C=C/c1ccc(Cl)cc1)c1ccc(Nc2ccnc3cc(Cl)ccc23)cc1 | 1.07 µM | > 100 µM | 48.6 µM | > 100 µM | 9.3 µM | > 100 µM | 32 µM | > 100 µM | > 100 µM | > 100 µM | 10.7 µM | > 83.8 µM |  | > 53.8 µM | > 100 µM | > 100 µM | 6.05 µM | > 67.5 µM | > 100 µM | > 100 µM
CCN(CC)c1ccc(-c2cc(-c3cc(OC)c(OC)c(OC)c3)nc(N3CCOCC3)c2C#N)cc1 | 0.532 µM | 8.87 µM | 2.83 µM | > 100 µM | 1.32 µM | 13.7 µM | 3.19 µM | 20.9 µM | 1.91 µM | > 100 µM | 1.01 µM | 21 µM | 0.219 µM | 0.845 µM | 0.805 µM | > 100 µM | 3.3 µM | > 100 µM | 0.379 µM | 2.55 µM
N#CC(C#N)=CNC(N)=S |  | > 100 µM |  | > 100 µM |  | > 100 µM |  | > 100 µM |  | > 100 µM |  | > 100 µM |  | > 100 µM |  | > 100 µM |  | > 100 µM |  | > 100 µM
ClCc1cccc(Cn2cnc3ncnc(Cl)c32)c1 | 2.89 µM | > 100 µM | 3.38 µM | 13.8 µM | 3.46 µM | 12.9 µM | 1.77 µM | 3.23 µM | 3.1 µM | 14.9 µM | 2.02 µM | 17.4 µM | 4.65 µM | 18.2 µM | 7.02 µM | 20.2 µM | 15.2 µM | 32.2 µM | 2.16 µM | 5.39 µM
Fc1cc2[nH]ncc2c2c3c(c(-c4cn[nH]c4)nc12)CCCC3 | 1.24 µM | > 100 µM | 0.521 µM | 9.56 µM | 0.959 µM | 3.61 µM | 1.53 µM | 6.91 µM | 1.48 µM | > 30.2 µM | 0.275 µM | 1.27 µM | 0.552 µM | 2.12 µM | 1.06 µM | 7.04 µM | 0.451 µM | > 26.6 µM | 0.632 µM | 2.31 µM
Cc1ccc(S(=O)(=O)Nc2ccccc2C(=O)c2ccc(C)c(C)c2)cc1 |  | > 100 µM |  | > 100 µM |  | > 100 µM |  | > 100 µM |  | > 100 µM |  | > 100 µM |  | > 100 µM |  | > 100 µM |  | > 100 µM |  | > 100 µM
CC[C@H](Nc1ncnc2nc[nH]c12)c1oc2ccccc2c(=O)c1-c1cccc(F)c1 | 28.3 µM | > 100 µM | 15.2 µM | 53.8 µM | 18.7 µM | 70.7 µM | 18.3 µM | > 100 µM | 31.9 µM | > 100 µM | 13.2 µM | 78.2 µM | 14 µM | 28.2 µM | 19.7 µM | > 100 µM | 32.5 µM | > 100 µM | 10.5 µM | 69 µM
CC1(C)C2CCC(=O)C1CC2 (stereo unspecified) |  | > 100 µM |  | > 100 µM |  | > 100 µM |  | > 100 µM |  | > 100 µM |  | > 100 µM |  | > 100 µM |  | > 100 µM |  | > 100 µM |  | > 100 µM
